According to article PMC10489651, “Six New Phenolic Glycosides from the Seeds of Moringa oleifera Lam. and Their α-Glucosidase Inhibitory Activity” (Molecules, 2023):

Biological target: α-glucosidase
Assay: colorimetric α-glucosidase inhibition assay (p-nitrophenyl glucopyranoside substrate, […] nm)
Format: biochemical

Row | IC50 | SMILES
1 | 301 ± 6.22 µM | C[C@@H]1O[C@@H](Oc2ccc(C/C(=N/OS(=O)(=O)O)S[C@@H]3O[C@H](CO)[C@@H](O)[C@H](O)[C@H]3O)cc2)[C@H](O)[C@H](O)[C@H]1O [compound 16, glucomoringin]
2 | 382.8 ± 1.42 µM | C[C@@H]1O[C@@H](Oc2ccc(Cc3cc(CC#N)ccc3O)cc2)[C@H](O)[C@H](O)[C@H]1O [compound 4, 4-(α-L-rhamnopyranosyl) benzyl-1′-hydroxy-4′-phenylacetonitrile]
